This assay addresses T1, human vesicular polyamine transporter (hVPAT) (Homo sapiens, UniProt Q6NT16).
T1 sequence (Q6NT16 1-456): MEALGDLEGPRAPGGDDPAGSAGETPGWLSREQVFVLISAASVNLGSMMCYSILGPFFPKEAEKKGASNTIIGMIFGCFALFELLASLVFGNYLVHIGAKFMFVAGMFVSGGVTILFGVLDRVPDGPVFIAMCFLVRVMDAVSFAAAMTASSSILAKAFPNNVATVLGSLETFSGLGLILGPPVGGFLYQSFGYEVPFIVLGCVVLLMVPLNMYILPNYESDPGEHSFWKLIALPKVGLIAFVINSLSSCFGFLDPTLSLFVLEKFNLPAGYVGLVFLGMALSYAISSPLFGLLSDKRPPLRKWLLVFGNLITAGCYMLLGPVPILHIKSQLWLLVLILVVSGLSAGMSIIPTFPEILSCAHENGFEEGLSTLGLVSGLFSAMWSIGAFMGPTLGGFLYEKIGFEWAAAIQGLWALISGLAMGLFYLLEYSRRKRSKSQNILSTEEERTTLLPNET
Briefly: cryo-EM structure at […] Å. Format: biochemical.

As usually defined, the Ki is the equilibrium dissociation constant of an inhibitor or competing ligand from its target. A higher Ki goes with a looser hold on the target. `COc1cc2c(cc1OC)C1CC(=O)C(CC(C)C)CN1CC2` (stereo not shown) [TBZ, tetrabenazine] showed an inhibition constant Ki of 2 µM.

The values are drawn from paper PMC12049414 (Nature Communications, 2025).
